Consider six molecules from ChEMBL document CHEMBL5244241, “Pyrimidine: A promising scaffold for optimization to develop the inhibitors of ABC transporters” (Eur J Med Chem, 2020).

Data set [1] in a line: Oral bioavailability in BALB/c mouse at 50 mg/kg, […] measured upto 24 hrs relative to control. It is filed as ADME, organism-based. The conditions noted are these: in vivo.
In data set [2] the target is T1, ATP-dependent translocase ABCB1 (Homo sapiens, UniProt P08183). Kind of data set: Inhibition of ABCB1 (unknown origin).
Data set [3] deals with K562/A02. Kind of data set: Reversal of doxorubicin-induced multidrug resistance in human K562/A02 cells assessed as reversal fold of doxorubicin cytotoxicity by MTT assay. It is filed as functional. Background: Tetrazolium dyes change colour on reduction, which living cells bring about.
The target of data set [4] is T1, ATP-dependent translocase ABCB1. Kind of data set: Inhibition of P-gp (unknown origin) mediated ATP hydrolysis.

A word on the bioavailability: it is dose-corrected exposure relative to a reference, in per cent. A higher bioavailability goes with much systemic uptake. One may read the IC50 as the midpoint of a concentration-inhibition curve. A high value points to lower potency.

T1 sequence (P08183 whole entry): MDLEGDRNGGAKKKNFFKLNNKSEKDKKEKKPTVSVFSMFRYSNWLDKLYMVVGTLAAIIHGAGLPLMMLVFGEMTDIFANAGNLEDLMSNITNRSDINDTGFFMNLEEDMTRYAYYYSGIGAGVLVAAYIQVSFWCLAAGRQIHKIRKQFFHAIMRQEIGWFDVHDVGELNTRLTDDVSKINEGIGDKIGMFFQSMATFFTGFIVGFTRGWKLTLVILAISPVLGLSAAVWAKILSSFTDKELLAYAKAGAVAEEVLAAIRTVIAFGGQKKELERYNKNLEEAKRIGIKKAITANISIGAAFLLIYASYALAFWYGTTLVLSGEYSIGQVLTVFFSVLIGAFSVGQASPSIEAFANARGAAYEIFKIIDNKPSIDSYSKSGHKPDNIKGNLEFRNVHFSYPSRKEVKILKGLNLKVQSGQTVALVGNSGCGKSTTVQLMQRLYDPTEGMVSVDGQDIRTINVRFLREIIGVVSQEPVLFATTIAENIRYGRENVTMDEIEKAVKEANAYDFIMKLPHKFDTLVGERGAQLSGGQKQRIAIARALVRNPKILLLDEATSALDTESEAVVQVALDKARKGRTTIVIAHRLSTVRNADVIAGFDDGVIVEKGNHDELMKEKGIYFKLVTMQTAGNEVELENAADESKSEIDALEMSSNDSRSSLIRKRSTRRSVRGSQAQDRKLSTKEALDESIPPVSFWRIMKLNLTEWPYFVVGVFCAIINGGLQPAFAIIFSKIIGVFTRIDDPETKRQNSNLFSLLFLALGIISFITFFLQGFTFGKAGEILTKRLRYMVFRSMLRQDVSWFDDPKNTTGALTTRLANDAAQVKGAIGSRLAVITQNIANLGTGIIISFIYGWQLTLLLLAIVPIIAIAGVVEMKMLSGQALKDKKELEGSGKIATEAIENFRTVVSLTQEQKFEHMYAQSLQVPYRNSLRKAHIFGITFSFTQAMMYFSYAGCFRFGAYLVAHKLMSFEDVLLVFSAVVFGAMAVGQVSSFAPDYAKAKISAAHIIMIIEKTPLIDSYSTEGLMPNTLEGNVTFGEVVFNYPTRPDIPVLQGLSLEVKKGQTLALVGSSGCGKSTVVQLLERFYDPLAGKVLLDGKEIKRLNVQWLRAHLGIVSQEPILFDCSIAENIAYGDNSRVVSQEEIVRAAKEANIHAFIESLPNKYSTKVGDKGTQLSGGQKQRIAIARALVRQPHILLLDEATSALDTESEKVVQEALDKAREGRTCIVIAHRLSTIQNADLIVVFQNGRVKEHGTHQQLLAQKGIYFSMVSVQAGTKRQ

Take `NC(=O)c1c2n(c3c(N4CCN(CCc5ccc(F)c(F)c5)CC4)ncnc13)CCCC2`: the bioavailability in data set [1] was > 50%.
Molecule `O=[N+]([O-])c1cc(Nc2nc(-c3ccccc3)nc3ccccc23)ccc1O` gave an IC50 in data set [2] of 0.08 µM.
In the case of `CCCCC(CC(C)=O)n1cnc2c(N)ncnc21` (stereo unspecified), the Ratio in data set [3] was found to be 1.09.
With `CCCCCC(CC(C)=O)n1cnc2c(N)ncnc21` (stereo unspecified), the Ratio in data set [3] was found to be 1.09.
In data set [4], `Nc1ncnc2c1ncn2[C@@H]1O[C@H](COC(=O)c2ccc(S(=O)(=O)F)cc2)[C@@H](O)[C@H]1O` yielded a half-maximal inhibitory concentration (IC50) of 210 µM.
Regarding `CCCCCCCCCCCCCCCCC(=O)CC(CCCCCCCC)n1cnc2c(N)ncnc21` (stereo unspecified), the Ratio in data set [3] came to 1.09.
